Earlier results as cited in US10907142B2, “Oligosaccharides comprising an aminooxy group and conjugates thereof” (Genzyme Corporation, priority 2007, dated 2021).

Test system: skeletal and cardiac muscle glycogen
Settings: murine model of Pompe disease; compared with recombinant human GAA; conjugate prepared by the method of U.S. Pat. No. 7,001,994

conjugate of the lysosomal enzyme acid α-glucosidase (GAA) with a a bis-M6P oligosaccharide: GAA coupled with a bis-M6P oligosaccharide by the method of U.S. Pat. No. 7,001,994
reducing skeletal and cardiac muscle glycogen: more effective in reducing skeletal and cardiac muscle glycogen than recombinant human GAA
